Biological target: T1, Met receptor (EGFR/Met chimeric cells, EMR) (Homo sapiens, UniProt P08581)
T1 construct: expressed in transfected cells; the other entry of the earlier key: EGFR (P00533, Epidermal growth factor receptor)
Experiment: Met Autophosphorylation Assay
Assay type: biochemical
How it was run: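 Transiently transfected EGFR/Met chimeric (EMR) cells were lysed in HNTG with 1 mM PMSF. Met was captured on plates coated with goat anti-rabbit IgG, then rabbit anti-Met (C-28), using 90 μg lysate/100 μl for 60 min at room temperature. Phosphotyrosine was read by ELISA.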

T1 sequence (P08581 with tags, fused parts or gaps): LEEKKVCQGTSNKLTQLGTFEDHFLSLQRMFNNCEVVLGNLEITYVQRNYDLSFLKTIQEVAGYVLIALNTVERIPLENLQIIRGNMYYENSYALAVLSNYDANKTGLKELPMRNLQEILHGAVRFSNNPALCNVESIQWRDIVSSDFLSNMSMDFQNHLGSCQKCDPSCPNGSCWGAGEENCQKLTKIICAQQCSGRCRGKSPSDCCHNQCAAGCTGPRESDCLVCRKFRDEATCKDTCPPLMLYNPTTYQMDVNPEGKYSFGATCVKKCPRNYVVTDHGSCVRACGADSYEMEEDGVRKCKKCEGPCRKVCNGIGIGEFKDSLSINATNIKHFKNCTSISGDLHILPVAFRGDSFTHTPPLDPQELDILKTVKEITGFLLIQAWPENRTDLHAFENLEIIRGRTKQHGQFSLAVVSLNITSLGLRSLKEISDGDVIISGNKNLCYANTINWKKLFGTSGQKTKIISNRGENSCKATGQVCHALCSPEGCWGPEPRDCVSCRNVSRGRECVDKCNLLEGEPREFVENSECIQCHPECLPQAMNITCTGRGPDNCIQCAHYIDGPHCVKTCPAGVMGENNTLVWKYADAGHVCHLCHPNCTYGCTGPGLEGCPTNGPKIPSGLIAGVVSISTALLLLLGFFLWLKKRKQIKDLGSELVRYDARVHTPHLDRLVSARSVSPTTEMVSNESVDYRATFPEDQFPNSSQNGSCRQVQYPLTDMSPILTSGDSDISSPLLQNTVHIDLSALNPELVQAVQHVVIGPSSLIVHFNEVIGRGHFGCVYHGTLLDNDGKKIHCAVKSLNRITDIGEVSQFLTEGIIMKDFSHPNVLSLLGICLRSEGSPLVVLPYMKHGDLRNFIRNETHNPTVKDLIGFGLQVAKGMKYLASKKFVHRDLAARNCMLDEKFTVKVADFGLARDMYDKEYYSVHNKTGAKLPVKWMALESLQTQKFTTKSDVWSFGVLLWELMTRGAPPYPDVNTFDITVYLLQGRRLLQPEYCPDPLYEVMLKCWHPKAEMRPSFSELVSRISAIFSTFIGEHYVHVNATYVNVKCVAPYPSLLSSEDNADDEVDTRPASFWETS

Row | Compound | Met Kinase % Inhibition (P.130)
1 | Cc1c(Br)cc(Br)c2c1C(=Cc1ccc([N+](=O)[O-])o1)C(=O)N2 [10718/H11] | 44.9%
2 | O=C1Nc2ccc(S(=O)(=O)N3CCOCC3)cc2C1=Cc1cc(F)cc(F)c1 [10735/F04] | 41.6%
3 | Cc1c(Br)cc(Br)c2c1C(=Cc1cccc(F)c1O)C(=O)N2 [10734/H08] | 64.8%
4 | O=C1Nc2ccc(S(=O)(=O)Nc3ccc(C(F)(F)F)cc3)cc2C1=Cc1ccc(-c2ccccc2)cc1 [10735/E11] | 7.2%
5 | Cc1c(Br)cc(Br)c2c1C(=Cc1cc(Br)cc(Br)c1O)C(=O)N2 [10734/H07] | 84.9%
6 | O=C1Nc2ccc(S(=O)(=O)N3CCOCC3)cc2C1=Cc1cccc2ccccc12 [10735/F09] | 7.0%
7 | CNS(=O)(=O)c1ccc2c(c1)C(=Cc1ccc(F)c(F)c1)C(=O)N2 [10735/D03] | 41.2%
8 | Cc1c(Br)ccc2c1C(=Cc1ccc(Cl)cc1Cl)C(=O)N2 [10735/C10] | 37.8%
9 | O=C1Nc2ccc(S(=O)(=O)Nc3ccc(C(F)(F)F)cc3)cc2C1=Cc1cccc(C(F)(F)F)c1 [10735/E05] | 74.8%
10 | O=C1Nc2ccc(CCCl)cc2C1=Cc1cc(F)cc(F)c1 [10735/G04] | 28.8%
11 | O=C1Nc2c(Br)cc(Br)cc2C1=Cc1cc(C(F)(F)F)cc(C(F)(F)F)c1 [10735/A06] | 58.9%
12 | COc1ccc(C=C2C(=O)Nc3c(Br)cc(Br)c(C)c32)c(OC)c1 [10719/H04] | 0.7%
13 | O=C1Nc2c(Br)cc(Br)cc2C1=Cc1ccc(Cl)cc1Cl [10735/A10] | 41.4%
14 | N#Cc1ccccc1C=C1C(=O)Nc2ccc(I)cc21 [10735/B07] | 56.0%
15 | CCc1c(C)[nH]c(C=C2C(=O)Nc3c(Br)cc(Br)c(C)c32)c1C [10719/H05] | 20.9%
16 | O=C1Nc2ccc(S(=O)(=O)N3CCOCC3)cc2C1=Cc1ccc(F)c(F)c1 [10735/F03] | 36.1%
17 | O=C1Nc2ccc(I)cc2C1=Cc1ccc(-c2ccccc2)cc1 [10735/B11] | 69.0%
18 | O=C1Nc2c(Br)cc(Br)cc2C1=Cc1cc(F)cc(F)c1 [10735/A04] | 48.0%
19 | Cc1c(O)ccc(C=C2C(=O)Nc3c(Br)cc(Br)c(C)c32)c1O [10718/H09] | 73.6%
20 | O=C1Nc2ccc(I)cc2C1=Cc1ccc(F)c(F)c1 [10735/B03] | 73.3%
21 | N#Cc1ccccc1C=C1C(=O)Nc2ccc(S(=O)(=O)Nc3ccc(C(F)(F)F)cc3)cc21 [10735/E07] | 64.5%
22 | N#Cc1ccccc1C=C1C(=O)Nc2c(Br)cc(Br)cc21 [10735/A07] | 61.9%
23 | O=C1Nc2ccc(I)cc2C1=Cc1c(F)cccc1F [10735/B08] | 53.4%
24 | Cc1c(Br)ccc2c1C(=Cc1c(F)cccc1F)C(=O)N2 [10735/C08] | 49.8%
25 | O=C1Nc2ccc(S(=O)(=O)Nc3ccc(C(F)(F)F)cc3)cc2C1=Cc1cccc2ccccc12 [10735/E09] | 11.3%
26 | Cc1c(Br)cc(Br)c2c1C(=Cc1ccc([N+](=O)[O-])cc1)C(=O)N2 [10734/H06] | 32.7%

Row | Compound | Met Kinase % Inhibition (P.130)
27 | CNS(=O)(=O)c1ccc2c(c1)C(=Cc1cccc3ccccc13)C(=O)N2 [10735/D09] | 23.0%
28 | Cc1c(Br)ccc2c1C(=Cc1cc(C(F)(F)F)cc(C(F)(F)F)c1)C(=O)N2 [10735/C06] | 47.0%
29 | O=C1Nc2c(Br)cc(Br)cc2C1=Cc1cccc2ccccc12 [10735/A09] | 19.2%
30 | CNS(=O)(=O)c1ccc2c(c1)C(=Cc1cc(F)cc(F)c1)C(=O)N2 [10735/D04] | 25.6%
31 | O=C1Nc2ccc(I)cc2C1=Cc1cccc(C(F)(F)F)c1 [10735/B05] | 83.7%
32 | CNS(=O)(=O)c1ccc2c(c1)C(=Cc1cc(C(F)(F)F)cc(C(F)(F)F)c1)C(=O)N2 [10735/D06] | 36.9%
33 | O=C1Nc2ccc(CCCl)cc2C1=Cc1ccc(F)c(F)c1 [10735/G03] | 24.3%
34 | O=C1Nc2ccc(S(=O)(=O)Nc3ccc(C(F)(F)F)cc3)cc2C1=Cc1cc(F)cc(F)c1 [10735/E04] | 85.2%
35 | O=C1Nc2ccc(I)cc2C1=Cc1cc(C(F)(F)F)cc(C(F)(F)F)c1 [10735/B06] | 82.7%
36 | Cc1ccccc1C=C1C(=O)Nc2ccc(S(=O)(=O)Nc3ccc(C(F)(F)F)cc3)cc21 [10735/E02] | 13.2%
37 | Cc1c(Br)ccc2c1C(=Cc1cccc3ccccc13)C(=O)N2 [10735/C09] | 24.1%
38 | O=C1Nc2ccc(S(=O)(=O)Nc3ccc(C(F)(F)F)cc3)cc2C1=Cc1c(F)cccc1F [10735/E08] | 35.7%
39 | CNS(=O)(=O)c1ccc2c(c1)C(=Cc1ccccc1C)C(=O)N2 [10735/D02] | 32.6%
40 | Cc1c(Br)cc(Br)c2c1C(=Cc1ccc(O)c(O)c1)C(=O)N2 [10719/H03] | 67.0%
41 | CNS(=O)(=O)c1ccc2c(c1)C(=Cc1ccccc1C#N)C(=O)N2 [10735/D07] | 33.7%
42 | Cc1c(Br)ccc2c1C(=Cc1ccc(-c3ccccc3)cc1)C(=O)N2 [10735/C11] | 14.1%
43 | O=C1Nc2c(Br)cc(Br)cc2C1=Cc1ccc(-c2ccccc2)cc1 [10735/A11] | 24.5%
44 | O=C1Nc2ccc(S(=O)(=O)N3CCOCC3)cc2C1=Cc1ccc(-c2ccccc2)cc1 [10735/F11] | 16.6%
45 | O=C1Nc2ccc(CCCl)cc2C1=Cc1cc(C(F)(F)F)cc(C(F)(F)F)c1 [10735/G06] | 36.1%
46 | CNS(=O)(=O)c1ccc2c(c1)C(=Cc1ccc(Cl)cc1Cl)C(=O)N2 [10735/D10] | 35.0%
47 | Cc1ccccc1C=C1C(=O)Nc2c(Br)cc(Br)cc21 [10735/A02] | 26.9%
48 | Cc1c(Br)cc(Br)c2c1C(=Cc1ccco1)C(=O)N2 [10718/H10] | 19.9%
49 | O=C1Nc2ccc(S(=O)(=O)Nc3ccc(C(F)(F)F)cc3)cc2C1=Cc1ccc(Cl)cc1Cl [10735/E10] | 41.8%
50 | N#Cc1ccccc1C=C1C(=O)Nc2ccc(S(=O)(=O)N3CCOCC3)cc21 [10735/F07] | 39.7%
51 | O=C1Nc2ccc(S(=O)(=O)N3CCOCC3)cc2C1=Cc1cc(C(F)(F)F)cc(C(F)(F)F)c1 [10735/F06] | 39.5%
52 | CNS(=O)(=O)c1ccc2c(c1)C(=Cc1c(F)cccc1F)C(=O)N2 [10735/D08] | 25.6%

Row | Compound | Met Kinase % Inhibition (P.130)
53 | O=C1Nc2c(Br)cc(Br)cc2C1=Cc1cccc(C(F)(F)F)c1 [10735/A05] | 46.1%
54 | Cc1c(Br)ccc2c1C(=Cc1ccccc1C#N)C(=O)N2 [10735/C07] | 49.1%
55 | O=C1Nc2ccc(I)cc2C1=Cc1cccc2ccccc12 [10735/B09] | 46.8%
56 | O=C1Nc2ccc(I)cc2C1=Cc1ccc(Cl)cc1Cl [10735/B10] | 73.3%
57 | Cc1ccccc1C=C1C(=O)Nc2ccc(S(=O)(=O)N3CCOCC3)cc21 [10735/F02] | 31.2%
58 | O=C1Nc2ccc(I)cc2C1=Cc1cc(F)cc(F)c1 [10735/B04] | 79.0%
59 | Cc1c(Br)cc(Br)c2c1C(=Cc1ccc(Br)s1)C(=O)N2 [10734/H11] | 28.7%
60 | O=C1Nc2c(Br)cc(Br)cc2C1=Cc1ccc(F)c(F)c1 [10735/A03] | 53.0%
61 | O=C1Nc2ccc(S(=O)(=O)N3CCOCC3)cc2C1=Cc1cccc(C(F)(F)F)c1 [10735/F05] | 26.4%
62 | CCOc1ccc(C=C2C(=O)Nc3c(Br)cc(Br)c(C)c32)cc1OC [10719/H02] | 36.9%
63 | CNS(=O)(=O)c1ccc2c(c1)C(=Cc1cccc(C(F)(F)F)c1)C(=O)N2 [10735/D05] | 33.7%
64 | O=C1Nc2ccc(S(=O)(=O)Nc3ccc(C(F)(F)F)cc3)cc2C1=Cc1cc(C(F)(F)F)cc(C(F)(F)F)c1 [10735/E06] | 33.3%
65 | CCN(CC)c1ccc(C=C2C(=O)Nc3c(Br)cc(Br)c(C)c32)c(O)c1 [10734/H05] | 51.1%
66 | CNS(=O)(=O)c1ccc2c(c1)C(=Cc1ccc(-c3ccccc3)cc1)C(=O)N2 [10735/D11] | 18.5%
67 | Cc1ccccc1C=C1C(=O)Nc2ccc(Br)c(C)c21 [10735/C02] | 27.7%
68 | Cc1ccccc1C=C1C(=O)Nc2ccc(I)cc21 [10735/B02] | 72.4%
69 | O=C1Nc2ccc(S(=O)(=O)N3CCOCC3)cc2C1=Cc1c(F)cccc1F [10735/F08] | 18.5%
70 | Cc1ccccc1C=C1C(=O)Nc2ccc(CCCl)cc21 [10735/G02] | 26.0%
71 | O=C1Nc2ccc(S(=O)(=O)N3CCOCC3)cc2C1=Cc1ccc(Cl)cc1Cl [10735/F10] | 13.0%
72 | Cc1c(Br)cc(Br)c2c1C(=Cc1ccc(C(C)(C)C)cc1)C(=O)N2 [10734/H10] | 23.5%
73 | Cc1c(Br)ccc2c1C(=Cc1cc(F)cc(F)c1)C(=O)N2 [10735/C04] | 75.8%
74 | O=C1Nc2ccc(S(=O)(=O)Nc3ccc(C(F)(F)F)cc3)cc2C1=Cc1ccc(F)c(F)c1 [10735/E03] | 71.8%
75 | Cc1c(Br)cc(Br)c2c1C(=Cc1ccc(O)c(Br)c1)C(=O)N2 [10734/H09] | 78.4%
76 | COc1cc(OC)c(C=C2C(=O)Nc3c(Br)cc(Br)c(C)c32)c(OC)c1 [10719/H06] | 1.3%
77 | O=C1Nc2c(Br)cc(Br)cc2C1=Cc1c(F)cccc1F [10735/A08] | 50.8%
78 | O=C1Nc2ccc(CCCl)cc2C1=Cc1cccc(C(F)(F)F)c1 [10735/G05] | 22.2%
